Experimental data taken from patent US12636352B2, “Functionalized enzyme-powered nanomotors” (FUNDACIO INSTITUT DE BIOENGINYERIA DE CATALUNYA, priority 2018, dated 2026).
Where two headings read alike, the source gives them in different places.

What was measured:
[1] = system: Human urinary bladder transitional cell papilloma RT4 cells
Description: 3D Cell Culture: Human urinary bladder transitional cell papilloma RT4 cells were cultured in McCoy's 5A (Modified) Medium, supplemented with FBS (10%) and penicillin-streptomycin solution (1%), in a 37° C. and 5% CO2 atmosphere. The cells were split every 4 days at a 1:2 ratio. To obtain 3D RT4 cell cultures, 8-well ibidi dishes were pre-coated with 23 μL of Matrigel™ (5 mg/mL) and incubated at 37° C. for 30 minutes, allowing the gel to form. Next, 30 μL of a suspension of RT4 cells at a density of 5×10^6 cells/mL was spread evenly in each well and the dishes were incubated for 30 minutes at 37° C. Finally, 150 μL of RT4 McCoy's medium containing 10% of Matrigel™ was added. The cultures were allowed to grow for 7 days before the experiments, changing the medium every 2 days.
Cytotoxicity Assays: The viability of RT4 3D cultures was quantified using the Alamar Blue assay and visualized using the LIVE/DEAD viability kit following manufacturer's instructions. […] After, the cultures were washed with medium, kept resting for 24 hours and viability was investigated according to manufacturer's instructions.
The spheroids were obtained by seeding RT4 cells in dishes coated with Matrigel™ which resembles the extracellular matrix and provides a 3D environment for cell growth. Then, the cultures were allowed to proliferate for 7 days and spheroid growth was monitored every day. […] After that, the cultures were washed with medium and cell viability and proliferation was assessed using the Alamar Blue assay.
It was further investigated the viability of the spheroids when exposed to the nanomotors (MSNP-Ur/PEG), under a range of concentrations of urea and at different incubation periods. The spheroids were incubated with 12.5 μg/mL of bare nanomotors or antibody-modified nanomotors at 0 mM, 25 mM, 30 mM and 40 mM of urea, for 1, 2 and 4 hours. Next, the cultures were thoroughly washed with medium to remove nanomotors and uncatalyzed urea and kept for 24 hours before analysis. The effect of the nanomotors on bladder cancer spheroids' viability was visualized using the LIVE/DEAD® viability kit and quantified using the Alamar Blue assay (FIG. 3).

[2] = FRET/Cy3 imaging of DNA-switch micromotors by confocal laser scanning microscopy; conditions: micromotors in PBS, pH 5 or pH 9
Description: To test the functionality of the switch once conjugated to the micromotors, FRET efficiency was monitored through a Leica-SP5 confocal laser scanning microscope (CSLM) equipped with a 63× oil immersion objective (FIG. 6B). For this, micromotors were suspended in PBS either at pH 5 or pH 9 and placed in a 8-well glass bottom dish for their analysis under CSLM. The emission of the donor (Cy3) was recorded using a 564 nm diode laser. The FRET image was obtained by exciting the Cy3 fluorophore and detecting the acceptor (Cy5) emission. Using a custom-made ImageJ plug-in, quantification of the FRET efficiency was achieved by calculating the FRET/Cy3 ratio.
The capability of micromotors to simultaneously record local pH changes produced while they are self-propelling was assessed by combining both optical tracking and FRET imaging using CSLM, where 25 s videos were recorded at 3FPS. In the absence of fuel, a mean FRET/Cy3 ratio of 1.8±0.09 (mean±standard error of the mean) was observed.
To gain insights into the instantaneous pH change around the micromotors from the initial moment of the reaction, micromotors were immobilized onto a glass surface using APTES as a coating agent to provide positive surface charges and stabilize the electrostatic interactions with the negatively charged micromotors. […]

[3] = Fluorescence (ratiometric FRET) pH titration of DNA switch in solution; conditions: 50 nM DNA switch
Description: Fluorescence measurements were carried out on a Cary Eclipse Fluorimeter (Varian), setting excitation wavelength to λex=530 nm (slitex=5 nm) and acquisition between 540 and 700 nm (slitem=5 nm) using quartz cuvettes of reduced volume (100 μL). All measurements were performed at T=25° C. in 10 mM HEPES. Switches were first diluted in HEPES 10 mM at the concentration of 1 μM. […]
The ratiometric FRET has been calculated as following:
Where FCyS is the maximum fluorescence emission of Cy5 (λem=670 nm) and FCy3 is the maximum fluorescence emission of Cy3 (λem=570 nm). The pH titration curves were obtained by plotting Rat. FRET vs hydronium ions concentration, and fitting the data with the following Langmuir-type equation: […]
Where Rat. FRETTRIPLEX and Rat. FRETDUPLEX represent the FRET signal of the switch in the triplex state (closed) and duplex state (open), respectively and where [H^+] represents the total concentration of hydrogen ions and
As a note, fluorophores employed here are not sensitive to pH in the range of pHs investigated (from pH 5.0 to pH 9.5) to avoid any interferences in the signal. It is important to note that this class of triplex-based switches show opening/closing kinetics sufficiently fast to allow the real time monitoring of pH variation (average time constant ˜100 ms).

NC(N)=O [Urea, urea]
spheroid viability (biocompatibility) [1]: not affecting spheroid viability

N [ammonia]
spheroid viability ([1]; 20 mM ammonia): > 70%
spheroid viability (biocompatibility) ([1]; 24 hours incubation, range of concentrations): increased cytotoxic trend with increasing concentrations
spheroid viability ([1]; 24 hours, all ammonia concentrations tested): > 70%

control switch: non-pH responsive hairpin DNA, SEQ ID NO: 3, Cy3/Cy5 labelled; tested conjugated to micromotors (DNA TCCTTGTCTGTCTGTCTGTCTGAACGTTTTTCGTTC; DNA, backbone not given here; further chemistry not fully specified)
FRET/Cy3 emission of switch-modified micromotors at different pH [2]: no significant differences

B1: DNA switch: triplex-forming single stranded DNA, SEQ ID NO: 1, labelled with Cy3 and Cy5 (nucleic acid)
DNA: TCCTTGTCTGTCTGTCTGTCTTTTTTGAAGAAGGAATTTATTCCTTCTTCGTTTGCTTCTTCCTT
modifications: DNA, backbone not given here; Cy3 and Cy5 labels, further chemistry not fully specified
FRET efficiency ([3]; acidic pH values): high FRET efficiency
FRET signal ([3]; pH of the solution increased (pH 5.0 to 9.5)): gradual decrease
